Paper PMC10138233 (PLOS ONE, 2023)

Tests used:
[1] = test system: SH-SY5Y (human neuroblastoma) cell line; assay: xCELLigence Real Time Cell Analysis (RTCA) of cell viability/proliferation
Description: (§1) This study utilized SH-SY5Y (human neuroblastoma) cell lines. […] After dissolving the cell line stored in a nitrogen tank for long-term use, the cells were removed from the culture dish with a 0.25 Trypsin/EDTA solution when they reached 70% density in the culture flasks. The cells were incubated in DMEM (Capricorn) supplemented with 10% heat-inactivated fetal bovine serum (FBS) and 0.1 mg/ml of penicillin at 37°C with 5% CO2. The medium was refreshed every 48 hours, and passages were made every 5 days based on cell confluency.
RTCA system is an analytical technique that follows cellular events such as proliferation by measuring the electric impedance passing through microelectrodes integrated beneath 96-well special plates in real-time. A 16-well e-plate compatible with the RTCA device was used, with 8 wells by 2. Firstly, 100 μl of cell culture was added to the plates to obtain the background density. Then, 3x10^4 cells were seeded in 100 μl of culture medium on top of the culture. After 24 h, the determined concentration ranges were applied.
Therefore, in this study, the concentrations of 5-10-15-25-50 μM were applied to find the optimum dose. […] There was only one study on a different cell line for quinine. […] The concentration range of 25-50-60-70-75-80-100 μM was chosen for etoperidone based on cell viability tests conducted with its analogue, trazadone.
For each selected dose, the drug was applied to two different wells. The first two wells were designated as the control group without drug application. The growth curve data was obtained from the graph generated by the device 48 h after drug application. The RTCA was repeated three times for each drug group. The IC50 calculations and the percent cell viability graphs compared to the control group were obtained from the data obtained from the three repeats.
(§2) All the analysis data from the RTCA device and the data generated from the MARS application using the microplate reader (OMEGA) were calculated in the GraphPad Prism 9.5.1 version using the ordinary one-way ANOVA multiple comparisons Tukey test. The results were graphically represented in Excel. Logarithmic calculations were made from the dose-response graph in Excel to obtain the IC50 values.

[2] = test system: SH-SY5Y (human neuroblastoma) cell line; assay: MTT cell viability assay; conditions: 48 h
Description: as §1
The MTT (3-(4,5-dimethylthiazol-2-yl)-2,5-diphenyltetrazolium bromide) assay is a commonly used colorimetric assay to measure cellular viability. […] The amount of formazan produced can be measured by determining the absorbance of the solution at a specific wavelength, which is proportional to the number of viable cells. This assay is widely used in cell biology and drug discovery research to evaluate the cytotoxic effects of various agents on cell viability.
In this study, the MTT assay was selected as the cell viability test. 12,500 cells were seeded per well in a 96-well plate. The cells were then incubated at 37°C with 5% CO2 for 24 h. After 24 h, the old medium was removed and drugs prepared by serial dilution in 100 μl of DMEM within the determined concentration range were applied to three wells, with one well selected as a control (untreated). The plate was then incubated at 37°C with 5% CO2 for another 48 h. After 48 h, […] of 10% MTT (Roche) solution in DMEM was added to each well, and two empty wells were added with only MTT solution for background measurement. After 4 h, 100 μl of solubilizing buffer was added to each well. The plate was incubated at 37°C with 5% CO2 for 16 h. After 16 h, the cell number in each sample was determined by measuring the absorbance spectrophotometrically at […] using a microplate reader (OMEGA). The data was used to determine the percentage relative to the control and create a dose-cell viability graph.
as §2

SMILES | concentration that significantly reduced cell viability compared to the control group (p < 0.001) ([1]; 48 h, RTCA) | concentration up to which no cytotoxicity was observed (cell index) ([1]; 48 h, RTCA) | safe optimum concentration that does not harm cell viability ([1]; based on both RTCA and MTT) | concentration (and below) with cell viability close to the control, no cytotoxicity [2] | cytotoxic concentration in correlation with RTCA findings [2] | concentration that significantly reduced cell viability compared to the control group (p < 0.001) ([1]; 48 h, RTCA, listed as galantamine) | cytotoxicity ([1]; 48 h, RTCA, 150-4800 μM) | IC50 ([1]; Homo sapiens, 48 h, read-out: IC50 ± SEM) | harmful effect on cell viability ([1]; based on both RTCA and MTT) | cytotoxicity [2]
CCc1nn(CCCN2CCN(c3cccc(Cl)c3)CC2)c(=O)n1CC [Etoperidone] | 100 µM | ≤ 70 µM | 70 µM | ≤ 70 µM | 100 µM | – | – | – | – | –
COc1ccc2c3c1O[C@H]1C[C@@H](O)C=C[C@@]31CCN(C)C2 [Galantamine] | 100 µM | ≤ 10 µM | 10 µM | ≤ 10 µM | 25 µM | 25 to 50 µM | – | – | – | –
Nc1nc2[nH]cc(CN[C@H]3C=C[C@H](O)[C@@H]3O)c2c(=O)[nH]1 [Queuine] | 5 µM | ≤ 1.25 µM | 1.25 µM | ≤ 1.25 µM | 5 µM | – | – | – | – | –
Cc1ncc(C[n+]2csc(CCO)c2C)c(N)n1 [Thiamine] | – | ≤ 4800 µM | – | – | – | – | no significant cytotoxicity at any applied concentration | 18.8 mM | no dose of Thiamine applied exhibited harmful effects | did not show any cytotoxic effect at any concentration
